Common to all, as to test: microbe, parasite or virus in culture
Holding throughout (settings): Hepatitis C virus

In experiment [1] the test system is stable HCV 1a RLuc replicon cells (genotype 1a H77 replicon). It is filed as cell-based.
For experiment [2], the system named is stable HCV 1b RLuc replicon cells (genotype 1b Con1 replicon). It is filed as cell-based.
Experiment [3] concerns stable HCV 2a JFH-1 Rluc replicon cells (L31 present in NS5A). The format is cell-based.
Experiment [4] concerns NS5A chimeric genotype 2a JFH-1 replicon with genotype 2a J6 strain NS5A gene (M31 present). It is filed as cell-based, HCV.
Experiment [5] deals with NS5A chimeric genotype 2a JFH-1 replicon with genotype 2b MD2b-1 strain NS5A gene (M31 present). The format is cell-based, HCV. In short, it runs like this: (§1)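 Con1-based 3a and 4a chimeras carried a Pi-RLuc reporter and were transiently transfected into Huh-Lunet cells; the JFH-1-based 2b chimera (RLuc-Neo) was used transiently or as stable replicon cells.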
Experiment [6] has as its system NS5A chimeric genotype 1b Con1 replicon with genotype 4a ED43 strain NS5A gene. The format is cell-based, HCV.
Experiment [7] has as its system 1a Pi-Rluc replicon with Q30R in genotype 1a NS5A. It is filed as cell-based, HCV. In short, it runs like this:
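Q30R introduced by site-directed mutagenesis into genotype 1a Pi-RLuc replicon; RNA transiently transfected into Huh-7-derived cured-51 cells.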

For experiment [8], the system named is NS5A chimeric genotype 1b Con1 replicon with genotype 3a S52 strain NS5A gene. It is filed as cell-based, HCV. In short, it runs like this:
as §1

Read-outs that look alike come from different tables or passages of the source.

For `COC(=O)N[C@H](C(=O)N1[C@@H]2C[C@@H]2C[C@H]1c1ncc(-c2ccc3c(c2)COc2cc4c(ccc5nc([C@@H]6C[C@H](COC(F)F)CN6C(=O)[C@H](NC(=O)OC)c6ccccc6)[nH]c54)cc2-3)[nH]1)C(C)C` [Example MW], the EC50 in experiment [1] (read-out: 1a) is below 1 nM; in experiment [1] (read-out: 1a (nM)) it was 0.012 nM; in experiment [2] (read-out: 1b (nM)), 0.026 nM; in experiment [3] (read-out: 2a JFH), below 1 nM; in experiment [3] (read-out: 2a JFH (nM)) it was 0.012 nM; in experiment [4] (read-out: 2a J6), below 1 nM. The EC50 in experiment [4] (read-out: 2a Jb (t) (nM)) was 0.02 nM; in experiment [5] (read-out: 2b), below 1 nM; in experiment [5] (read-out: 2b (s) (nM)) it was 0.123 nM; in experiment [5] (read-out: 2b (t) (nM)) it was 0.043 nM; in experiment [6] (read-out: 4a) it was below 1 nM; in experiment [6] (read-out: 4a (s) (nM)) it was 0.011 nM.

For the molecule `COC[C@H]1C[C@@H](c2nc3ccc4cc5c(cc4c3[nH]2)OCc2cc(-c3cnc([C@@H]4CC[C@H](C)N4C(=O)[C@@H](NC(=O)OC)[C@@H](C)OC)[nH]3)ccc2-5)N(C(=O)[C@@H](NC(=O)OC)[C@@H](C)OC)C1` [Compound 646], the EC50 in experiment [1] (read-out: 1a (nM) EC50) is 0.058 nM; in experiment [1] (read-out: 1a EC50 range), below 1 nM; in experiment [2] (read-out: 1b (nM) EC50), 0.109 nM; in experiment [3] (read-out: 2a JFH (nM) EC50), 0.03 nM; in experiment [3] (read-out: 2a JFH EC50 range), below 1 nM; in experiment [4] (read-out: 2a J6 EC50 range) it was below 1 nM. The EC50 in experiment [4] (read-out: 2a Jb (t) (nM) EC50) is 0.042 nM; in experiment [5] (read-out: 2b (s) (nM) EC50), 0.262 nM; in experiment [5] (read-out: 2b (t) (nM) EC50), 0.112 nM; in experiment [5] (read-out: 2b EC50 range), below 1 nM; in experiment [6] (read-out: 4a (s) (nM) EC50), 0.034 nM; in experiment [6] (read-out: 4a EC50 range) it was below 1 nM.

`COC(=O)N[C@H](C(=O)N1C[C@@H](COC(F)F)C[C@H]1c1nc2ccc3cc4c(cc3c2[nH]1)OCc1cc(-c2cnc(C3CCCN3C(=O)OC(C)(C)C)[nH]2)ccc1-4)C(C)C` (stereo partly drawn) [Example PQ, tert-butyl 2-[5-(2-{(2S,4S)-4-[(difluoromethoxy)methyl]-1-[N-(methoxycarbonyl)-L-valyl]pyrrolidin-2-yl}-1,11-dihydroisochromeno[4′,3′:6,7]naphtho[1,2-d]imidazol-9-yl)-1H-imidazol-2-yl]pyrrolidine-1-carboxylate]: the EC50 is below 1 nM in experiment [1] (read-out: 1a); 0.014 nM in experiment [1] (read-out: 1a (nM)); 0.014 nM in experiment [2] (read-out: 1b (nM)); below 1 nM in experiment [3] (read-out: 2a JFH); 0.005 nM in experiment [3] (read-out: 2a JFH (nM)); below 1 nM in experiment [4] (read-out: 2a J6). The EC50 in experiment [4] (read-out: 2a J6 (s) (nM)) is 0.155 nM; in experiment [4] (read-out: 2a Jb (t) (nM)), 0.025 nM; in experiment [5] (read-out: 2b) it was below 1 nM; in experiment [5] (read-out: 2b (s) (nM)), 0.057 nM; in experiment [5] (read-out: 2b (t) (nM)) it was 0.032 nM; in experiment [6] (read-out: 4a), below 1 nM. Moreover, the EC50 is 0.017 nM in experiment [6] (read-out: 4a (s) (nM)), 0.015 nM in experiment [6] (read-out: 4a (t) (nM)), below 1 nM in experiment [7] (read-out: 1a Q30R) and 0.106 nM in experiment [7] (read-out: 1a Q30R (nM)).

For `COC(=O)N[C@H](C(=O)N1[C@@H](C)CC[C@H]1c1ncc(-c2ccc3c(c2)COc2cc4c(ccc5nc([C@@H]6C[C@H](C)CN6C(=O)[C@@H](NC(=O)OC)[C@@H](C)OC)[nH]c54)cc2-3)[nH]1)C(C)C` [Example NL, Methyl {(2S)-1-[(2S,5S)-2-(5-{2-[(2S,4S)-1-{(2S,3R)-3-methoxy-2-[(methoxycarbonyl)amino]butanoyl}-4-methylpyrrolidin-2-yl]-1,11-dihydroisochromeno[4′,3′:6,7]naphtho[1,2-d]imidazol-9-yl}-1H-imidazol-2-yl)-5-methylpyrrolidin-1-yl]-3-methyl-1-oxobutan-2-yl}carbamate], the EC50 in experiment [1] (read-out: 1a) is below 1 nM; in experiment [1] (read-out: 1a (nM)) it was 0.011 nM; in experiment [2] (read-out: 1b (nM)), 0.013 nM; in experiment [3] (read-out: 2a JFH) it was below 1 nM; in experiment [3] (read-out: 2a JFH (nM)), 0.007 nM; in experiment [4] (read-out: 2a J6) it was below 1 nM. Further, the EC50 in experiment [4] (read-out: 2a Jb (t) (nM)) is 0.043 nM; in experiment [5] (read-out: 2b), below 1 nM; in experiment [5] (read-out: 2b (t) (nM)) it was 0.034 nM.

Regarding `CCC(C)[C@H](NC(=O)OC)C(=O)N1C[C@@H](C)CC1c1ncc(-c2ccc3c(c2)COc2cc4c(ccc5nc([C@@H]6CC(COC)CN6C(=O)[C@@H](NC(=O)OC)C(C)OC)[nH]c54)cc2-3)[nH]1` (stereo in doubt) [Example QD, Methyl {(2S,3R)-1-[(2S,4S)-2-(5-{2-[(2S,4S)-1-[N-(methoxycarbonyl)-O-methyl-L-allothreonyl]-4-(methoxymethyl)pyrrolidin-2-yl]-1,11-dihydroisochromeno[4′,3′:6,7]naphtho[1,2-d]imidazol-9-yl}-1H-imidazol-2-yl)-4-methylpyrrolidin-1-yl]-3-methyl-1-oxopentan-2-yl}carbamate], the EC50 is below 1 nM in experiment [1] (read-out: 1a); 0.025 nM in experiment [1] (read-out: 1a (nM)); 0.03 nM in experiment [2] (read-out: 1b (nM)); below 1 nM in experiment [3] (read-out: 2a JFH); 0.013 nM in experiment [3] (read-out: 2a JFH (nM)); below 1 nM in experiment [4] (read-out: 2a J6). Moreover, the EC50 in experiment [4] (read-out: 2a Jb (t) (nM)) is 0.103 nM; in experiment [5] (read-out: 2b), below 1 nM; in experiment [5] (read-out: 2b (t) (nM)), 0.193 nM.

As to `COC(=O)N[C@H](C(=O)N1CCC[C@H]1c1ncc(-c2ccc3c(c2)COc2cc4c(ccc5nc([C@@H]6CCCN6C(=O)[C@H](NC(=O)C6CC6)c6ccccc6)[nH]c54)cc2-3)[nH]1)C(C)C` [Compound 516], the EC50 in experiment [1] (read-out: 1a) is below 1 nM; in experiment [1] (read-out: 1a (nM)) it was 0.015 nM; in experiment [2] (read-out: 1b (nM)), 0.024 nM; in experiment [3] (read-out: 2a JFH), below 1 nM; in experiment [3] (read-out: 2a JFH (nM)), 0.009 nM; in experiment [8] (read-out: 3a), below 1 nM. Further, the EC50 in experiment [8] (read-out: 3a (nM)) is 0.005 nM; in experiment [4] (read-out: 2a J6) it was below 1 nM; in experiment [4] (read-out: 2a J6 (s) (nM)), 0.043 nM; in experiment [5] (read-out: 2b) it was below 1 nM; in experiment [5] (read-out: 2b (s) (nM)) it was 0.013 nM; in experiment [6] (read-out: 4a), below 1 nM. Also, the EC50 in experiment [6] (read-out: 4a (s) (nM)) was determined as 0.025 nM; in experiment [6] (read-out: 4a (t) (nM)), 0.01 nM.

For the molecule `COC[C@H]1C[C@@H](c2nc3ccc4cc5c(cc4c3[nH]2)OCc2cc(-c3cnc([C@@H]4C[C@H](C)CN4C(=O)[C@@H](NC(=O)OC)[C@@H](C)OC)[nH]3)ccc2-5)N(C(=O)[C@@H](NC(=O)OC)[C@@H](C)OC)C1` [Example NK, Methyl {(2S,3R)-3-methoxy-1-[(2S,4S)-2-[9-(2-{(2S,4S)-1-[N-(methoxycarbonyl)-O-methyl-L-threonyl]-4-methylpyrrolidin-2-yl}-1H-imidazol-5-yl)-1,11-dihydroisochromeno[4′,3′:6,7]naphtho[1,2-d]imidazol-2-yl]-4-(methoxymethyl)pyrrolidin-1-yl]-1-oxobutan-2-yl}carbamate], the EC50 was below 1 nM in experiment [1] (read-out: 1a); 0.049 nM in experiment [1] (read-out: 1a (nM)); 0.081 nM in experiment [2] (read-out: 1b (nM)); below 1 nM in experiment [3] (read-out: 2a JFH); 0.018 nM in experiment [3] (read-out: 2a JFH (nM)); below 1 nM in experiment [4] (read-out: 2a J6). Besides, the results for the EC50 in experiment [4] (read-out: 2a Jb (t) (nM)), in experiment [5] (read-out: 2b) and in experiment [5] (read-out: 2b (t) (nM)) were 0.056 nM, below 1 nM and 0.154 nM, respectively.

For `COC[C@H]1C[C@@H](c2nc3ccc4cc5c(cc4c3[nH]2)OCc2cc(-c3cnc([C@@H]4C[C@H](C(F)(F)F)CN4C(=O)[C@@H](NC(=O)OC)C(C)C)[nH]3)ccc2-5)N(C(=O)[C@H](NC(=O)OC)c2ccccc2)C1` [Example PJ, methyl {(1R)-2-[(2S,4S)-2-(9-{2-[(2S,4S)-1-{(2S)-2-[(methoxycarbonyl)amino]-3-methylbutanoyl}-4-(trifluoromethyl)pyrrolidin-2-yl]-1H-imidazol-5-yl}-1,11-dihydroisochromeno[4′,3′:6,7]naphtho[1,2-d]imidazol-2-yl)-4-(methoxymethyl)pyrrolidin-1-yl]-2-oxo-1-phenylethyl}carbamate], the EC50 in experiment [1] (read-out: 1a (nM) EC50) was 0.068 nM; in experiment [1] (read-out: 1a EC50 range), below 1 nM; in experiment [2] (read-out: 1b (nM) EC50), 0.088 nM; in experiment [3] (read-out: 2a JFH (nM) EC50), 0.058 nM; in experiment [3] (read-out: 2a JFH EC50 range) it was below 1 nM; in experiment [4] (read-out: 2a J6 EC50 range) it was below 1 nM. Besides, the EC50 is 0.136 nM in experiment [4] (read-out: 2a Jb (t) (nM) EC50); 0.854 nM in experiment [5] (read-out: 2b (s) (nM) EC50); 0.335 nM in experiment [5] (read-out: 2b (t) (nM) EC50); below 1 nM in experiment [5] (read-out: 2b EC50 range); 0.056 nM in experiment [6] (read-out: 4a (s) (nM) EC50); below 1 nM in experiment [6] (read-out: 4a EC50 range).

The values are drawn from patent US8575135B2 (Gilead Sciences, Inc., priority 2011, dated 2013).
